Results taken from US20160368992A1, “A METHOD OF INCREASING GIPCR SIGNALIZATION IN THE CELLS OF A SCOLIOTIC SUBJECT” (CHU SAINTE-JUSTINE, priority 2013, published 2016).

Tests used:
GiPCR signaling [1] = assay: CDS (CellKey) functional evaluation of Gi protein-mediated receptor signaling in primary mouse osteoblasts; assay type: cell-based, mice; conditions: osteoblasts from bipedal CD44 knockout (CD44-/-) mice
[2] = system: MOR, LPA1R, MT2R receptors and Gi1, Gi2, Gi3 proteins; assay: Western blot and qPCR for expression of GPCRs and Gi protein isoforms in MC3T3-E1 cells; assay type: cell-based
Experimental: Thermo-Script™ reverse transcriptase (Invitrogen) was used to reverse transcribe mRNA into cDNA ([…] total concentration). Several dilutions were tested to choose the concentration that yielded the most efficient amplification. The human primers used were the following: […]
Each amplification was performed in duplicate using […] of diluted cDNA, […] of 3 mM primer solution and […] of 2× QuantiTect™ SYBR Green PCR Master Mix (QIAGEN Inc, Ontario, Canada). All reaction mixes were run on Mx3000P™ system from Stratagene (Agilent Technologies Company, La Jolla, Calif.) and analyzed with MxPro™ QPCR Software also from Stratagene. Relative quantification was calculated with the delta CT method using β-actin as the endogenous control.
Gi proteins isoforms expression levels were determined using Western blot technique. MC3T3-E1 cells were treated with PBS or rOPN 0.5 μg/ml overnight (R&D systems Inc., Minneapolis, USA). These cells were washed with cold PBS 1× then lysed in RIPA buffer (25 mM Tris.Hcl pH7.4, 150 mM NaCl, 1% NP-40, 1% sodium deoxycholate, 0.1% SDS) added with 5 mM NaVO4 and protease inhibitor cocktail (Roche molecular Biochemicals, Mannheim, Germany). Immunoblots were performed with primary antibodies directed specifically against Gi1, Gi2, Gi3, Gs, Phosphoserine, integrin β1 (Santa Cruz Biotechnology, Santa Cruz, Calif.), Mu opioid receptor (MOR) (abcam Toronto, ON, Canada), Lysophosphatidic acid receptor 1 (LPAR1) (assaybiotech Inc., USA), melatonin receptor 2 (MT2) and peroxidase-conjugated secondary antibody. […]
Given that the level of GPCRs is critical for their signaling, it was of interest to examine whether the defective GiPCR signaling induced by OPN is the consequence of a quantitative reduction of these receptors. For this purpose, MC3T3-E1 cells were treated with PBS or rOPN and the cell lysates were analyzed by Western blot for the expression of three different GPCRs; including mu-opioid (MOR), lysophosphatidic acid type 1 (LPA1R) and melatonin type 2 (MT2R) receptors. […]

GiPCR signaling [3] = assay: GiPCR signaling after LPA stimulation in osteoblasts of AIS patients (CD44 CT SNP) and healthy controls in the presence of rOPN; assay type: cell-based, human; conditions: same rOPN treatment
Experimental: Next, the effect of the CT SNP on GiPCR signaling was assessed. Osteoblasts from severe AIS patients (who underwent surgery) carrying the CT SNP and osteoblasts from healthy controls with wild type CD44 (CC) were stimulated with LPA in the presence of recombinant OPN (rOPN). The GiPCR defective signaling effect in response to the same rOPN treatment was […] 50% more in mutated CD44 (CT) osteoblasts as compared to in wild type CD44 (CC) osteoblasts (FIG. 9 A). […] The CT mutation in CD44 thus increases the sensitivity of scoliotic patients to the damaging effects of OPN on GiPCR signaling and thereby contributes the more severe phenotype observed in these subjects.

In the case of “rOPN: exogenous recombinant osteopontin (R&D systems)”, the “response to DAMGO and oxymethazolin after rOPN treatment” value (GiPCR signaling [1]) is reported as “concentration-dependent decrease in response”, the “level of MOR, LPA1R and MT2R receptors” value ([2]; Western blot, rOPN vs PBS) is reported as “not modified” and the “quantity of Gi proteins (Gi1, Gi2, Gi3)” value ([2]; immunoblotting, relative to PBS-treated cells) is reported as “no significant effect”. For the same substance, the “mRNA expression of Gi isoforms” value ([2]; qPCR, PBS- vs rOPN-treated cells) was “no significant difference” and the “additional reduction of GiPCR signaling in mutated CD44 (CT) vs wild type CD44 (CC) osteoblasts” value (GiPCR signaling [3]) was 50%.
